#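 These data come from cells grown in 96-well plates and exposed to compound for 48 hours at five concentrations. Abbreviation: GI50, concentration required for 50% inhibition of growth.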 Active and inactive are the calls of the source. No stated cut-off is given here; in the data, active = GI50 up to about 1.1 µM and inactive = higher.
# How the values were obtained:
# Assay in all cases: growth of human tumour cells (NCI), 48 h
# SF-539 = test system: SF-539
# UACC-257 = test system: UACC-257
# SK-MEL-2 = test system: SK-MEL-2
# EKVX = test system: EKVX
# HL-60 = test system: HL-60
# NCI-H522 = test system: NCI-H522
# OVCAR-5 = test system: OVCAR-5
# HT-29 = test system: HT-29
# RPMI-8226 = test system: RPMI-8226
# HCC 2998 = test system: HCC 2998
# KM12 = test system: KM12
# K562 = test system: K562
# TK-10 = test system: TK-10
# MOLT-4 = test system: MOLT-4
# OVCAR-4 = test system: OVCAR-4
# SW-620 = test system: SW-620
SMILES,GI50 (SF-539),GI50 (UACC-257),GI50 (SK-MEL-2),GI50 (EKVX),GI50 (HL-60),GI50 (NCI-H522),GI50 (OVCAR-5),GI50 (HT-29),GI50 (RPMI-8226),GI50 (HCC 2998),GI50 (KM12),GI50 (K562),GI50 (TK-10),GI50 (MOLT-4),GI50 (OVCAR-4),GI50 (SW-620)
CCC(=O)OC1CCn2c1nc1c2C(=O)C(C)=C(NC(C)=O)C1=N (configuration not stated),1.74 µM (inactive),1.24 µM (inactive),1.75 µM (inactive),2.63 µM (inactive),0.774 µM (active),1.39 µM (inactive),1.87 µM (inactive),1.61 µM (inactive),2.06 µM (inactive),3.4 µM (inactive),2.11 µM (inactive),2.34 µM (inactive),3.72 µM (inactive),1.54 µM (inactive),1.35 µM (inactive),0.916 µM (active)
Cc1ccc(C)c(NC(=O)CCc2n[nH]c(=S)o2)c1,> 100 µM (inactive),> 100 µM (inactive),–,> 100 µM (inactive),> 100 µM (inactive),> 100 µM (inactive),> 100 µM (inactive),> 100 µM (inactive),–,> 100 µM (inactive),> 100 µM (inactive),> 100 µM (inactive),> 100 µM (inactive),> 100 µM (inactive),> 100 µM (inactive),> 100 µM (inactive)
CCOC(OCC)c1ccc(/C=C/c2cc(OC)c(OC)c(OC)c2)cc1,15.8 µM (inactive),20.2 µM (inactive),–,33 µM (inactive),11.7 µM (inactive),25.2 µM (inactive),11.4 µM (inactive),16.9 µM (inactive),17.1 µM (inactive),–,> 10 µM (inactive),17.1 µM (inactive),33.4 µM (inactive),–,22.3 µM (inactive),22.7 µM (inactive)
Nc1nc2c(c(=O)[nH]1)NC(CO)CN2 (configuration not stated),> 100 µM (inactive),24.3 µM (inactive),–,> 100 µM (inactive),> 100 µM (inactive),> 100 µM (inactive),–,44.2 µM (inactive),> 100 µM (inactive),–,> 100 µM (inactive),51.3 µM (inactive),> 100 µM (inactive),37.1 µM (inactive),–,37.9 µM (inactive)
Nc1nc(Cl)cc(NCCCCCNc2cc(Cl)nc(N)n2)n1,> 100 µM (inactive),46.8 µM (inactive),> 100 µM (inactive),86.5 µM (inactive),27.3 µM (inactive),20 µM (inactive),37.4 µM (inactive),> 100 µM (inactive),33.5 µM (inactive),> 100 µM (inactive),> 100 µM (inactive),34.6 µM (inactive),> 100 µM (inactive),7.48 µM (inactive),34.8 µM (inactive),> 100 µM (inactive)
Cn1cnc([N+](=O)[O-])c1Sc1nccn1-c1cccc2ccccc12,25.4 µM (inactive),27.3 µM (inactive),14.1 µM (inactive),26.9 µM (inactive),–,8.69 µM (inactive),23.2 µM (inactive),23.9 µM (inactive),15.8 µM (inactive),45.5 µM (inactive),35.7 µM (inactive),19.8 µM (inactive),22 µM (inactive),12.9 µM (inactive),24 µM (inactive),26.2 µM (inactive)
C=C(COC(C)=O)CC(/C=C(\C)CC/C=C(\C)CO)OC(C)=O (configuration not stated),> 100 µM (inactive),–,> 100 µM (inactive),> 100 µM (inactive),> 100 µM (inactive),> 100 µM (inactive),> 100 µM (inactive),> 100 µM (inactive),> 10 µM (inactive),> 100 µM (inactive),> 100 µM (inactive),> 100 µM (inactive),> 100 µM (inactive),35.1 µM (inactive),> 100 µM (inactive),> 100 µM (inactive)
COc1cc2c(c(OC)c1)C(=O)C(=O)C(CC1(C)OCCCO1)=C2,17.5 µM (inactive),14.1 µM (inactive),16 µM (inactive),15.9 µM (inactive),1.85 µM (inactive),1.4 µM (inactive),22.9 µM (inactive),18.4 µM (inactive),3.56 µM (inactive),16.4 µM (inactive),16 µM (inactive),2.29 µM (inactive),6.14 µM (inactive),3.27 µM (inactive),6.22 µM (inactive),1.79 µM (inactive)
O=C(/C=C/c1ccc([N+](=O)[O-])o1)N1CCN(Cc2ccccc2)CC1,6.61 µM (inactive),7.89 µM (inactive),–,22.4 µM (inactive),2.56 µM (inactive),2.82 µM (inactive),17.3 µM (inactive),5.81 µM (inactive),10.5 µM (inactive),15.7 µM (inactive),12.1 µM (inactive),3.46 µM (inactive),23.2 µM (inactive),11.6 µM (inactive),15.6 µM (inactive),7.08 µM (inactive)
